The structures appear in SMILES notation. Like-named read-outs stand apart in the source and are kept apart here.

The target in series [1] is T1, dopamine D2 receptors (Homo sapiens (Human), UniProt P14416). Kind of series: Dopamine D2 receptor radioligand competition binding assay ([3H]-Methylspiperone). The following applies: [3H]-Methylspiperone 0.3 to 0.5 nM, 293T membranes. The protocol: The affinity of the compounds of the present disclosure for dopamine D2 receptors was determined by a radioligand competition binding assay.
T1 sequence (P14416 whole entry): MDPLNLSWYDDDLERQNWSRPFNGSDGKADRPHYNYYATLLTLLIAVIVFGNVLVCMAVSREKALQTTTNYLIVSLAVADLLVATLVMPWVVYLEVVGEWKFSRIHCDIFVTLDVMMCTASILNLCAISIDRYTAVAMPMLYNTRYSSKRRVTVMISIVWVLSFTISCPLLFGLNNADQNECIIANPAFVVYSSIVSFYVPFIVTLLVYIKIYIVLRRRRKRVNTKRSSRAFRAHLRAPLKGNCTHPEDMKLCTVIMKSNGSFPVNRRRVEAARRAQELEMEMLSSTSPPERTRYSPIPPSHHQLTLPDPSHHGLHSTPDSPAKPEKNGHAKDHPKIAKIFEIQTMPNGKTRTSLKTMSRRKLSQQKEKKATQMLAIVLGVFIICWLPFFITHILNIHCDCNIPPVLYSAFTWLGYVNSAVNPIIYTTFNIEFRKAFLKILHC
In the first step, a cell membrane component containing specific dopamine D2 receptors was prepared. A 10 cm culture dish was used for transfection with […] of dopamine D2 receptors and 40 μL of polyethylenimine (PEI hereafter). […] A vacuum pump was used to suck off the culture medium, 3 mL of lysis buffer was added to each culture dish, and the cells were placed in a 4° C. cold room for 10 minutes. After the cells were detached, the cells were transferred to a 15 mL centrifuge tube and centrifuged at 1500 rpm for 5 minutes at 4° C., and the supernatant was discarded. The cell pellet was transferred to a tissue homogenizer, and 3 mL of lysis buffer was added and fully ground until the cells were broken. Then, cell suspension was equally aliquoted into several EP tubes, centrifuged at 12000 rpm for 5 minutes at 4° C., and the supernatant was discarded. The precipitate was the cell membrane component containing the dopamine D2 receptors.
First, a standard binding buffer was added to the cell membrane component containing the dopamine D2 receptors, and the cell membrane was disrupted and resuspended with an electric tissue homogenizer. 30 μL of membrane protein suspension was added to each well of a 96-well plate. Then, 30 μL of different drugs were added to the 96-well plate sequentially from bottom to top to ensure that the final drug concentrations were 10^−5 M, 10^−6 M, 10^−7 M, 10^−8 M, 10^−9 M, and 0 M, with two replicates per treatment. Next, 30 μL of [3H]-Methylspiperone was added to each well of the 96-well plate. The plate was incubated at room temperature in the dark for 2 hours. Detection was conducted. The machine readout value reflected the amount of [3H]-Methylspiperone bound on the membrane, and after further data processing, the affinity Ki values of different compounds for the dopamine D2 receptors were obtained.

The target in series [2] is 5-hydroxytryptamine 1A (5-HT1A) receptors (Homo sapiens (Human), UniProt P08908). Kind of series: 5-HT1A receptor Gαi1 BRET (G protein trimer dissociation). Type of series: cell-based. The note with it: relative to endogenous ligand 5-hydroxytryptamine.
5-hydroxytryptamine 1A (5-HT1A) receptors, sequence (P08908 whole entry): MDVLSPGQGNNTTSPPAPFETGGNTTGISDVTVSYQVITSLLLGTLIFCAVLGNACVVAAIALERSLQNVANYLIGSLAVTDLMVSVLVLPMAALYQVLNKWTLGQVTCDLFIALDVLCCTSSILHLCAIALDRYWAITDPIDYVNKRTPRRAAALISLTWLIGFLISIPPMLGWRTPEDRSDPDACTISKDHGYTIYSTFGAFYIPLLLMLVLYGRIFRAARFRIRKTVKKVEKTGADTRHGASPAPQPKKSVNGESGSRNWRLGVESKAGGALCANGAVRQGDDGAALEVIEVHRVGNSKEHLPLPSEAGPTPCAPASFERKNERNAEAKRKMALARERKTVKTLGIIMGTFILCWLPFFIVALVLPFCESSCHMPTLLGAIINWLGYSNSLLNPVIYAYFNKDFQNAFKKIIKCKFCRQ
For series [3], the target named is T1, dopamine D2 receptors. Kind of series: Dopamine D2 receptor β-arrestin2 BRET (recruitment). Type of series: cell-based. The following applies: for Emax: relative to endogenous ligand dopamine, read-out: β-arrestin2 BRET Emax % ± SEM. The protocol: (§1) To examine the downstream G-protein signaling pathway mediated by dopamine D2 receptors, on the first day, a 6 cm culture dish was used for transfection with 1 μg of dopamine D2 receptors, 1 μg of Gαi1 containing C-terminal seaweed luciferase (Gαi1-Rluc), 1 μg of Gβ3, 1 μg of Gγ9 containing C-terminal green fluorescent protein (Gγ9-GFP) mixed with 16 μL of PEI. At the same time, in order to examine the downstream β-arrestin2 signaling pathway mediated by dopamine D2 receptors, on the first day, a 6 cm culture dish was used for transfection with […] of dopamine D2 receptors containing C-terminal seaweed luciferase (D2-Rluc), […] of G protein-coupled receptor kinase 2 (GRK2), […] of β-arrestin2 containing N-terminal green fluorescent protein (GFP2-ARRB2) mixed with 14 μL of PEI. The next day, the confluent cells of a 6 cm culture dish were digested and reseeded into a 96-well plate with 100 μL of culture medium added to each well. On the third day, the drugs were added for test. The 96-well plate was taken out from the cell incubator to decant the culture medium, 40 μL of the substrate coelenterazine 400a (final concentration of 5 μM) was added to each well, and then 20 μL of different drugs were added sequentially from left to right to ensure that the final concentration of the drug decreased gradually from bottom to top, with two replicates per treatment. Finally, the prepared samples were loaded on machine for test. The machine readout value reflected the recruitment of β-arrestin2 to the membrane or the dissociation of G protein trimer. The former indicated the degree of activation of the β-arrestin2 signaling pathway downstream of the dopamine D2 receptors, and the latter indicated the degree of activation of the G protein signaling pathway downstream of the dopamine D2 receptors.

Series [4] concerns the target T1, dopamine D2 receptors. Kind of series: Dopamine D2 receptor Gαi1 BRET (G protein trimer dissociation). Type of series: cell-based. The note with it: for Emax: relative to endogenous ligand dopamine, read-out: Gαi1 BRET Emax % ± SEM. The protocol: as §1
Series [5] in a line: Pharmacokinetics in SD rats, single dose intragastric and intravenous. The series is classed as in vivo. The note with it: male, rat, plasma; for AUC(0-t): read-out: Area under the drug-time curve AUC0-t; for half-life: read-out: Elimination half-life t1/2 (converted); for MRT: read-out: Mean residence time MRT; for Cmax: read-out: Peak drug concentration Cmax. How it is done:
Testing of pharmacokinetic properties of compounds administered in a single dose to SD rats by intragastric administration and intravenous injection
After the compound was administered in a single dose to male SD rats, blood samples were collected at different time points. The concentration of the compound in the plasma of the rats was determined by LC-MS/MS and the relevant pharmacokinetic parameters were calculated to investigate the pharmacokinetics of the compound in rats.
Male SD rats were provided by Suzhou JOINN Laboratories Co., Ltd. SD rats were fasted with free access to water for 12 to 14 hours one day before administration, and were fed 4 hours after administration.
For each compound, the […] were divided into two groups: intravenous injection and intragastric administration, with 3 rats in each group. For both intravenous injection (administered at a dose of 3 mg/kg and a concentration of 0.6 mL/kg) and intragastric administration (administered at a dose of 10 mg/kg and a concentration of 1 mL/kg), 5% DMSO+5% Solutol+90% saline was used as the vehicle.
Sample collection: 0.10 mL of blood was collected from the orbit of each animal in IV/PO groups each time at 5 minutes, 15 minutes, 30 minutes, 1 hour, 2 hours, 4 hours, 6 hours, 8 hours, and 24 hours after administration of the test compound, and anticoagulated with EDTA-K2. Blood samples were placed on ice after collection, and plasma was separated by centrifugation within 30 minutes (centrifugation conditions: 5000 rpm, 10 minutes, 4° C.). The collected plasma was stored at −80° C. before analysis.
Data processing: The data acquisition and control system software was Analyst 1.5.1 software (Applied Biosystem). The peak integration method of chromatographic samples was automatic integration; the ratio of the peak area of the sample to the peak area of the internal standard was used as an index for regression with the concentration of the sample. […] Pharmacokinetic parameters were analyzed with a non-compartmental model using WinNonlin Professional v6.3 (Pharsight, USA). Cmax was the measured maximum plasma concentration, the area under the plasma concentration-time curve AUC(0→t) was calculated by the trapezoidal method, and tmax was the time to peak plasma concentration after administration. Experimental data were presented as “Mean±SD” (n≥3) or “Mean” (n=2).

Series [6] in a line: Brain permeability test, single intraperitoneal dose in C57 male mice. The series is classed as in vivo. The note with it: intraperitoneal 5 mg/kg. How it is done:
Using the same method as that in the pharmacokinetic experiment, 0.030 mL of blood was collected from the orbit of each animal at 0.5 hours, 2.0 hours, and 4.0 hours, and anticoagulated with EDTA-K2. Blood samples were placed on ice after collection, and plasma was separated by centrifugation within 30 minutes (centrifugation conditions: 5000 rpm, 10 minutes, 4° C.). The collected plasma was stored at −80° C. before analysis. […] The homogenate was stored at −80° C. before analysis. Drug concentrations in plasma and brain tissues were analyzed by LC/MS/MS for comparison.

Where [7] appears, read: unit printed only in Cariprazine cell, read-out: β-arrestin2 BRET EC50.
The mark [8] stands for this setting: unit printed only in Cariprazine cell, read-out: Gαi1 BRET EC50.
Setting [9] is: intravenous injection, dose 10 mg/kg.

Regarding `CC(C)Oc1cccc2c3c(oc12)CN(CCCCOc1ccc2ccc(=O)[nH]c2c1)CC3` [I-A18, 7-(4-(8-isopropoxy-3,4-dihydrobenzofuro[2,3-c]pyridin-2(1H)-yl)butoxy)quinolin-2(1H)-one], the “Affinity pKi ± SEM” value on dopamine D2 receptors [1] was “(7.05 ± 0.09)”. Moreover, the Emax in series [2] was determined as 81.9%.
In turn, `CCOc1cccc2c3c([nH]c12)CN(CCC1CC(NC(=O)N(C)C)C1)CC3` (stereo not shown) [I-B11, 3-(3-(2-(8-ethoxy-1,3,4,9-tetrahydro-2H-pyrido[3,4-b]indol-2-yl)ethyl)cyclobutyl)-1,1-dimethylurea] returned an Emax in series [2] of 22.3%.
In the case of `CCOc1cccc2c3c(oc12)CN(CCCOc1ccc2c(c1)OCO2)CC3` [I-A31, 2-(3-(benzo[d][1,3]dioxol-5-yloxy)propyl)-8-ethoxy-1,2,3,4-tetrahydrobenzofuro[2,3-c]pyridine], in series [2], the Emax turned out to be 104%.
Consider `CCOc1cccc2c3c(oc12)CN(CCCCN1C(=O)CC2(CCCC2)CC1=O)CC3` [I-A46, 8-(4-(8-ethoxy-3,4-dihydrobenzofuro[2,3-c]pyridin-2(1H)-yl)butyl)-8-azaspiro[4.5]decane-7,9-dione], for which the Emax is 31% at dopamine D2 receptors [3] and 98.5% in series [2]. In addition, at dopamine D2 receptors [3] (setting [7]), the EC50 was 213 nM.
Consider `CCOc1cccc2c3c(oc12)CN(CCN1CCc2cc(C)ncc2C1=O)CC3` [I-A38, 2-(2-(8-ethoxy-3,4-dihydrobenzofuro[2,3-c]pyridin-2(1H)-yl)ethyl)-6-methyl-3,4-trihydro-2,7-naphthyridin-1(2H)-one], for which the “Gαi1 BRET Emax %” value in series [2] is recorded as 116.2%.
As for `COc1cccc2c1cc1n2CCN(CC[C@H]2CC[C@H](NC(=O)N(C)C)CC2)C1` [I-C7, 3-(trans-4-(2-(9-methoxy-3,4-dihydropyrazino[1,2-a]indol-2(1H)-yl)ethyl)cyclohexyl)-1,1-dimethylurea], the Emax at dopamine D2 receptors [4] came out at 97%; on dopamine D2 receptors [3], 151%. The EC50 is 123 nM on dopamine D2 receptors [4] (setting [8]), 195 nM on dopamine D2 receptors [3] (read-out: β-arrestin2 BRET pEC50 ± SEM (converted)) and 291 nM on dopamine D2 receptors [3] (setting [7]). In addition, the Vd in series [5] (intravenous injection, dose 10 mg/kg, read-out: Apparent volume of distribution Vdss) stood at 4.75 ± 0.4 L/kg. Further, the AUC(0-t) in series [5] (setting [9]) amounted to 2520 ± 446 ng·h/mL; in series [5] (oral administration, 10 mg/kg), 10400 ± 1180 ng·h/mL. Besides, the clearance in series [5] (intravenous injection, dose 10 mg/kg, read-out: Clearance CL) is 20.1 ± 3.6 mL/min/kg. Also, the half-life is 3.67 ± 0.1 h in series [5] (setting [9]) and 8.54 ± 2.3 h in series [5] (oral administration, 10 mg/kg). In addition, the MRT was 3.98 ± 0.4 h in series [5] (setting [9]) and 11.5 ± 4.1 h in series [5] (oral administration, 10 mg/kg). The Cmax in series [5] (setting [9]) amounted to 765 ± 74 ng/mL; in series [5] (oral administration, 10 mg/kg) it was 1000 ± 195 ng/mL. The bioavailability in series [5] (oral administration, 10 mg/kg, read-out: Bioavailability F) is 123 ± 14%. In addition, the Tmax in series [5] (oral administration, 10 mg/kg, read-out: Time to peak concentration tmax) was determined as 2 h. The molecule also yielded an AUC brain in series [6] (brain) of 2767 ng·h/mL. Besides, in series [6] (male, C57, mouse, brain/plasma, ip, 0.5 h, read-out: 0.5 h ratio (brain/plasma)), the Kp at 0.5 h was found to be 3.05. Also, in series [6] (male, C57, mouse, brain/plasma, ip, 2.0 h, read-out: 2.0 h ratio (brain/plasma)), the Kp at 2 h turned out to be 2.67. Besides, in series [6] (male, C57, mouse, brain/plasma, ip, 4.0 h, read-out: 4.0 h ratio (brain/plasma)), the Kp at 4 h was 2.24. Besides, the Kp in series [6] (male, C57, mouse, brain/plasma, ip, read-out: AUC ratio (brain/plasma)) came out at 2.71. Further, the concentration at 0.5 h in series [6] (male, C57, mouse, 0.5 h, brain, read-out: 0.5 h brain concentration) is 1030 ± 96 ng/mL; in series [6] (male, C57, mouse, 0.5 h, plasma, read-out: 0.5 h plasma concentration), 336 ± 28 ng/mL. The concentration at 2 h in series [6] (male, C57, mouse, 2.0 h, brain, read-out: 2.0 h brain concentration) is 714 ± 143 ng/mL; in series [6] (male, C57, mouse, 2.0 h, plasma, read-out: 2.0 h plasma concentration) it was 267 ± 47 ng/mL. The concentration at 4 h in series [6] (male, C57, mouse, 4.0 h, brain, read-out: 4.0 h brain concentration) came out at 491 ± 80 ng/mL; in series [6] (male, C57, mouse, 4.0 h, plasma, read-out: 4.0 h plasma concentration), 219 ± 15 ng/mL. In series [6] (male, C57, mouse, ip, plasma), the AUC was 1020 ng·h/mL.
`CCOc1cccc2c3c(oc12)CN(CCCn1ncc(=O)n(C)c1=O)CC3` [I-A44, 2-(3-(8-ethoxy-3,4-dihydrobenzofuro[2,3-c]pyridin-2(1H)-yl)propyl)-4-methyl-1,2,4-triazine-3,5(2H,4H)-dione]: the Emax at dopamine D2 receptors [3] turned out to be 21%; in series [2], 75.9%. The EC50 on dopamine D2 receptors [3] (setting [7]) worked out at 206 nM.
As for `CCOc1cccc2c3c(oc12)CN(CCCCc1ccc2ccc(=O)[nH]c2c1)CC3` [I-A25], the EC50 at dopamine D2 receptors [4] (read-out: Gαi1 BRET pEC50 ± SEM (converted)) is 2.04 nM; on dopamine D2 receptors [4] (setting [8]) it was 1.32 nM; on dopamine D2 receptors [3] (setting [7]), 54.6 nM. The results for the Emax (on dopamine D2 receptors [4]; at dopamine D2 receptors [3]; in series [2]) were 40%, 78% and 78%, respectively.

Source of the values: patent US20250109139A1, “TRICYCLIC COMPOUND, AND PREPARATION METHOD THEREFOR AND USE THEREOF” (SHANGHAITECH UNIVERSITY, priority 2022, published 2025).
